Assay results as given in patent US20160244728A1, “CULTURE METHOD FOR PLURIPOTENT STEM CELLS AND KIT AND MEDIUM FOR CULTURE OF PLURIPOTENT STEM CELLS USED THEREIN” (FUJIFILM Corporation, priority 2013, published 2016).

Legend:
[1] = system: human iPS cells; experiment: Cell adhesiveness evaluation 2 (synthetic polypeptides added to cells seeded on natural vitronectin); type: cell-based; details: 100 μM synthetic polypeptide
Protocol: The polypeptides shown in Table 7 were synthesized by an Fmoc solid-phase synthesis method. A surface onto which natural vitronectin was adsorbed at a concentration of 130 pmol/cm^2 was prepared, and then a cell suspension to which 100 μM of the aforementioned synthetic polypeptides were added was seeded into wells at a ratio of 30,000 cells/well. The number of adhesive cells 24 hours after seeding was calculated in the same manner as in <Cell adhesiveness evaluation 1>, and the results are shown in Table 7. In Table 7, the cell adhesion rate is expressed as a relative value calculated by regarding the cell adhesion rate obtained by using a culture solution not containing the synthetic polypeptides as being 100%. n=3.

[2] = system: human iPS cells; experiment: Growth evaluation in Essential 8 medium with magnesium ascorbyl phosphate; type: cell-based; details: for number of growing cells depending on the concentration of magnesium ascorbyl phosphate (in words): Tables 10 to 13; for Number of cells after 3 days (%): n=3
Protocol: The growth of cells was evaluated in the same manner as in Reference example 5.
Magnesium ascorbyl phosphate was added to a medium. […] The samples were adsorbed onto a 96-well plate, and the iPS cells collected in the same manner as in <Cell adhesiveness evaluation 1> were seeded into the plate at a ratio of 1×10^4 cells/well and cultured for 3 days in a 5% CO2 incubator at 37° C. The number of cells after 3 days was measured in the same manner as in <Cell adhesiveness evaluation 1>. Furthermore, by using VTN-N (manufactured by Life Technologies) and Vitronectin-XF (manufactured by Primorigen Biosciences), the growth of the cells was evaluated in the same manner.
The results obtained from RCP-17 are shown in Table 10, the results obtained from Human Recombinant Laminin-511 are shown in Table 11, the results obtained from VTN-N (manufactured by Life Technologies) are shown in Table 12, and the results obtained from Vitronectin-XF (manufactured by Primorigen Biosciences) are shown in Table 13. In Tables 10 and 11, the number of cells is expressed as a relative value calculated by regarding the number of cells at the concentration of magnesium ascorbyl phosphate of 0.8 mmol/L as being 100. n=3.

[3] = Evaluation of adsorbability with respect to culture dish; type: physicochemical; details: FIG. 1
Protocol: Each of the polypeptides obtained as above was diluted with a predetermined buffer such that they could be added to wells at a predetermined final concentration of 0 pmol/cm^2 to 200 pmol/cm^2. Thereafter, each of the polypeptides was added in an amount of 64 μL to a plasma-treated 96-well plate made of polystyrene (Tissue Culture-Treated, Falcon). Each of the polypeptides was allowed to adsorb onto the plate by being incubated for 2 hours at 37° C., and then the wells were washed twice with PBS, thereby obtaining surfaces coated with each of the polypeptides of RCP-1 to RCP-16.
Among the surfaces coated with each of the polypeptides obtained as above, the surfaces coated with RCP-1 and RCP-11 to RCP-16 were applied with 64 μL of a borate buffer and 64 μL of 1 N NaOH, followed by incubation for 24 hours at 80° C. and 100% humidity. After the resultant was air-cooled, 75 μL of a borate buffer was added to each well, and 50 μL of a reaction solution obtained by mixing OPA (o-phthalaldehyde: Wako Pure Chemical Industries, Ltd./methanol solution (160 mg/ml)) with N-acetyl-L-cysteine (NAC: Wako Pure Chemical Industries, Ltd.)/borate buffer solution (2 mg/ml) at a ratio of 1:100 (mass ratio) was further added thereto. After incubation for 30 minutes at 40° C., the fluorescence intensity thereof was measured by using an Envision Multilabel Counter (PerkinElmer Inc.) (excitation 355 nm/fluorescence 486 nm). A calibration curve was separately prepared from each of the polypeptide solutions so as to calculate the amount of the polypeptide adsorbed. In FIG. 1, a black rhombus indicates RCP-1, a black square indicates RCP-11, a black triangle indicates RCP-12, a black circle indicates RCP-13, a white rhombus indicates RCP-14, a white square indicates RCP-15, and a white triangle indicates RCP-16.

[4] = system: human iPS cells; experiment: Evaluation of maintenance of undifferentiated state; type: cell-based
Protocol: iPS cells collected in the same manner as in <Cell adhesiveness evaluation 1> were suspended in TeSR2. The iPS cells were seeded into 6-well plate (Tissue culture-treated, Falcon), onto which each of the samples 1, 2, 5, 6, and 7 used in <Cell adhesiveness evaluation 1> was adsorbed in the same manner as in <Cell adhesiveness evaluation 1>, and cultured in a CO2 incubator at 37° C. Except for the day after the seeding, the medium was replaced every day. In the same method as described above, the cells were subcultured every six days. FIGS. 3A to 3E show forms of the iPS cells cultured on each of the samples.
After being cultured for 1 month under the conditions described above, the cells were immobilized using 4% paraformaldehyde and treated with 1% Triton-X/PBS so as to enhance the membrane permeability. After the cells were subjected to a blocking treatment using an Image IT Signal Enhancer (Invitrogen), an anti-human NANOG antibody (AF 1997, R&D Systems, Inc.), an Alexa Fluor 555 binding rabbit anti-goat IgG antibody (Invitrogen), and DAPI (Dojindo Molecular Technologies, Inc.) were added thereto for labeling, and the cells were imaged using a fluorescence microscope. FIGS. 4A to 4E show the fluorescence microscopic images.
FIGS. 3A and 4A show the iPS cells cultured on RCP-1; FIGS. 3B and 4B show the iPS cells cultured on RCP-11; FIGS. 3C and 4C show the iPS cells cultured on natural human vitronectin; FIGS. 3D and 4D show the iPS cells cultured on rLaminin-5; and FIGS. 3E and 4E show the iPS cells cultured on rLaminin-511. The scale bar in the images indicates 100 μm. In FIGS. 3A to 3E, the images on the left side are full images of the colony, and the images on the right side are magnified images. In FIGS. 4A to 4E, the images on the left side are images of the cells stained with DAPI, and the images on the right side are images of the cells stained with an anti-NANOG antibody. The scale bar in FIGS. 3 and 4 indicates 200 μm.

## CCTDYTAECKPQVTRGDVFT [Peptide-5, polypeptide synthesized by an Fmoc solid-phase synthesis method]
[1]
  adhesion of cells to the natural vitronectin on addition of the peptide (in words): significantly hindered

## CCTDYTAECKPQVTRGEVFT [Peptide-7]
[1]
  adhesion of cells to the natural vitronectin on addition of the peptide (in words): not hindered

## DKKCQCDELCSYYQSCCTDY [Peptide-4, polypeptide synthesized by an Fmoc solid-phase synthesis method]
[1]
  adhesion of cells to the natural vitronectin on addition of the peptide (in words): significantly hindered

## DQESCKGRCTEGFNVDKKCQ [Peptide-1, polypeptide synthesized by an Fmoc solid-phase synthesis method]
[1]
  adhesion of cells to the natural vitronectin on addition of the peptide (in words): not hindered

## EGFNVDKKCQCDELCSYYQS [Peptide-3, polypeptide synthesized by an Fmoc solid-phase synthesis method]
[1]
  adhesion of cells to the natural vitronectin on addition of the peptide (in words): not hindered

## KGRCTEGFNVDKKCQCDELC [Peptide-2, polypeptide synthesized by an Fmoc solid-phase synthesis method]
[1]
  adhesion of cells to the natural vitronectin on addition of the peptide (in words): not hindered

## Laminin-511: recombinant laminin (Human Recombinant Laminin-511: BIOLAMINA AB), control
[2]
  number of growing cells depending on the concentration of magnesium ascorbyl phosphate (in words): does not depend
[2]; magnesium ascorbyl phosphate 0.2 mmol/L, added amount 20 μg/cm^3, Table 11, relative to 0.8 mmol/L = 100
  Number of cells after 3 days (%): 61%
[2]; magnesium ascorbyl phosphate 0.5 mmol/L, added amount 20 μg/cm^3, Table 11, relative to 0.8 mmol/L = 100
  Number of cells after 3 days (%): 79%
[2]; magnesium ascorbyl phosphate 0.8 mmol/L, added amount 20 μg/cm^3, Table 11, reference = 100
  Number of cells after 3 days (%): 100%
[2]; magnesium ascorbyl phosphate 1.6 mmol/L, added amount 20 μg/cm^3, Table 11, relative to 0.8 mmol/L = 100
  Number of cells after 3 days (%): 90%
[2]; magnesium ascorbyl phosphate 3.7 mmol/L, added amount 20 μg/cm^3, Table 11, relative to 0.8 mmol/L = 100
  Number of cells after 3 days (%): 114%
[2]; magnesium ascorbyl phosphate 9.1 mmol/L, added amount 20 μg/cm^3, Table 11, relative to 0.8 mmol/L = 100
  Number of cells after 3 days (%): 100%
[2]; magnesium ascorbyl phosphate 18.1 mmol/L, added amount 20 μg/cm^3, Table 11, relative to 0.8 mmol/L = 100
  Number of cells after 3 days (%): 112%

## RCP-14: recombinant polypeptide, human vitronectin positions 1-55 (GPLGDQESCKGRCTEGFNVDKKCQCDELCSYYQSCCTDYTAECKPQVTRGDVFTMPEDE; Synthetic Peptide RCP-14)
[3]
  amount adsorbed onto the plate relative to the polypeptide including SEQ ID NO: 3: about 1/4

## TAECKPQVTRGDVFTMPEDE [Peptide-6, polypeptide synthesized by an Fmoc solid-phase synthesis method]
[1]
  adhesion of cells to the natural vitronectin on addition of the peptide (in words): significantly hindered

## TAECKPQVTRGEVFTMPEDE [Peptide-8]
[1]
  adhesion of cells to the natural vitronectin on addition of the peptide (in words): not hindered

B1: RCP-17: recombinant polypeptide, human vitronectin positions 1-55, 269-277, 295-341, 342-373, C274S (protein)
chain: MDQESCKGRCTEGFNVDKKCQCDELCSYYQSCCTDYTAECKPQVTRGDVFTMPEDESQEESEGSEDIFELLFWGRTSAGTRQPQFISRDWHGVPGQVDAAMAGRIYISGMAPRPSLAKKQRFRHRNRKGYRSQRGHSRGRNQN
modifications: Synthetic Peptide RCP-17
notes: recombinant polypeptide, human vitronectin positions 1-55, 269-277, 295-341, 342-373, C274S
[2]
  number of growing cells depending on the concentration of magnesium ascorbyl phosphate (in words): increases
[2]; magnesium ascorbyl phosphate 0.2 mmol/L, added amount 100 μg/cm^3, 1×10^4 cells/well, relative to 0.8 mmol/L = 100
  Number of cells after 3 days (%): 114%
[2]; magnesium ascorbyl phosphate 0.5 mmol/L, added amount 100 μg/cm^3, 1×10^4 cells/well, relative to 0.8 mmol/L = 100
  Number of cells after 3 days (%): 98%
[2]; magnesium ascorbyl phosphate 0.8 mmol/L, added amount 100 μg/cm^3, 1×10^4 cells/well, reference = 100
  Number of cells after 3 days (%): 100%
[2]; magnesium ascorbyl phosphate 1.6 mmol/L, added amount 100 μg/cm^3, 1×10^4 cells/well, relative to 0.8 mmol/L = 100
  Number of cells after 3 days (%): 145%
[2]; magnesium ascorbyl phosphate 3.7 mmol/L, added amount 100 μg/cm^3, 1×10^4 cells/well, relative to 0.8 mmol/L = 100
  Number of cells after 3 days (%): 219%
[2]; magnesium ascorbyl phosphate 9.1 mmol/L, added amount 100 μg/cm^3, 1×10^4 cells/well, relative to 0.8 mmol/L = 100
  Number of cells after 3 days (%): 212%
[2]; magnesium ascorbyl phosphate 18.1 mmol/L, added amount 100 μg/cm^3, 1×10^4 cells/well, relative to 0.8 mmol/L = 100
  Number of cells after 3 days (%): 204%
[2]; magnesium ascorbyl phosphate 36.0 mmol/L, added amount 100 μg/cm^3, 1×10^4 cells/well, relative to 0.8 mmol/L = 100
  Number of cells after 3 days (%): 230%

B2: Natural vitronectin: human vitronectin (extracted from human serum, BD Biosciences), control (protein, listed as Homo sapiens)
chain: DQESCKGRCTEGFNVDKKCQCDELCSYYQSCCTDYTAECKPQVTRGDVFTMPEDEYTVYDDGEEKNNATVHEQVGGPSLTSDLQAQSKGNPEQTPVLKPEEEAPAPEVGASKPEGIDSRPETLHPGRPQPPAEEELCSGKPFDAFTDLKNGSLFAFRGQYCYELDEKAVRPGYPKLIRDVWGIEGPIDAAFTRINCQGKTYLFKGSQYWRFEDGVLDPDYPRNISDGFDGIPDNVDAALALPAHSYSGRERVYFFKGKQYWEYQFQHQPSQEECEGSSLSAVFEHFAMMQRDSWEDIFELLFWGRTSAGTRQPQFISRDWHGVPGQVDAAMAGRIYISGMAPRPSLAKKQRFRHRNRKGYRSQRGHSRGRNQNSRRPSRATWLSLFSSEESNLGANNYDDYRMDWLVPATCEPIQSVFFFSGDKYYRVNLRTRRVDTVDPPYPRSIAQYWLGCPAPGHL
[4]; FIGS. 3A to 3E, TeSR2, subcultured every six days
  form of the iPS cell colony: form specific to undifferentiated cells
[4]; FIGS. 4A to 4E, after culture for 1 month
  maintenance of the undifferentiated state (NANOG staining): strongly expressed NANOG in the entirety of the colony
